# Assay results: patent US20070010459A1, “Application of asiatic acid and its derivatives to treat pulmonary fibrosis” (priority 2005, published 2007)
# How the values were obtained:
# [1] = background statement, see U.S. Pat. No. 6,417,349; cited from earlier work
# [2] = tested on: primary culture of mice fibroblast; experiment: bFGF-stimulated proliferation of primary fibroblast culture; type: cell-based; details: tested at 25, 12.5, 6.25, 3.125 or 1.56 μg
# Experimental: Using bFGF (0.5 µg/ml), the proliferation of primary culture of mice fibroblast with the presence of asiaticoside or asiatic acid at 25, 12.5, 6.25, 3.125 or 1.56 μg respectively was assessed.
# [3] = Pharmacokinetics, tissue distribution and excretion of asiaticoside; type: in vivo, rats; details: rat, in vivo, 100 mg/kg
# Experimental: Three doses of asiaticoside (10, 33, 100 mg/kg) were gavaged to rats (n=6) and canines (n=4). After dosing, blood was sampled up to 120 or 216 hours in rats and canines respectively. Tissue distribution and excretion studies in rats were carried out with the highest dose.
# The respective asiaticoside and asiatic acid in the same bio-matrix were detected by LC/MS/MS and GC/MS. Because the secondary peak resembled a plasma concentration-time profile in both rat and canine rather than conventional compartment fitting, statistical moment analysis was used in calculating pharmacokinetic parameters. […] In addition to the targeted organ, both asiaticoside and asiatic acid were distributed in some other organs, which could be the sign to expand clinical indications.
# [4] = tested on: pulmonary fibrosis induced by bleomycin in rat; experiment: Asiatic acid in bleomycin-induced pulmonary fibrosis rat model; type: in vivo, SD male rats; details: for Lung CT scanning results: after 28 days; for Lung Weight: mean
# Excerpt: The pulmonary fibrosis animal model was induced by bleomycin in rat according to the methods described by Lazo J S, Hoyt D G, Sebti S M, Pitt B R. in Pharmacol Ther. 1990: 47:347-58. In this article, praquat, bleomycin and amiodrone are three routinely used chemical agent to induce lung fibrosis is rodents, e.g. mice, rat and Chinese hamsters as well as primates, e.g. baboon and cynomolgous monkey etc. there are also reports describing using rabbit or dog as model animal for such study. Different groups were able to generate lung fibrosis in animal models through different administration routes. For example, 3 various pulmonary fibrosis animal models using Co^60 to radiate rat, bleomycin or CCl4 injection into abdominal cavity of mice or rat respectively were generated. […] Specifically, diffusive stromal lung fibrosis model induced by tracheal bleomycin dripping is the most commonly used animal model. The advantage of this method is that the model can be obtained with once bleomycin dripping without repeated venous or abdominal injections, therefore limiting the influences to other organs caused by systematic administrations. It also lowers the experimental cost. The development of pulmonary fibrosis from alveolitis can be observed in 4 weeks, which is very similar to the pulmonary fibrosis pathological development in human being.
# 1. Animal: SD male rats with weight raging between 200-250 g, purchased from SLAC.
# 3. Dosage: Asiatic acid, 3, 9, […], po for 28 days.
# Male SD rats were lay down flat on operating table and anesthetize with 3% Secobarbital. The trachea was exposed after sterilization of cervical part with alcohol. The needle was then inserted into tracheal cartilage interspace. Bleomycin at 5 mg/kg was dipped in. Afterwards, the rats were reared to evenly distribute bleomycin in the lung. The trachea was then sutured. […] The regimen was initiated on the second day. Sham-operated and untreated group received saline. After 28 days of treatment, lung weight, hydroyproline content, pathological section and CT scan were measured or conducted.
# After 28 days on asiatic acid, rats were sacrificed and dissected. The body and lung weight were measured respectively and used to calculate lung weigh coefficient.
# After 28 days on Asiatic acid, hydroxyproline content in lung was measured. The results are as follows:
# After 28 days on asiatic acid, lung CT scans were performed to each group of experimental rats.
# After 28 days on asiatic acid, the rats were sacrificed and dissected. Both lungs were harvested. The specimen were embedded and fixed then subjected to HE staining. The focus of infection were observed under microscope with ⅓, ⅔ and 3/3 Vf*10 to conduct semi-quantative analysis.
# [5] = tested on: radiation pneumonia and subsequent pulmonary fibrosis induced by Cobalt-60 radiation; experiment: Pharmacodynamics of asiaticoside in radiation pneumonia induced by Cobalt-60 radiation; type: in vivo, rats; parameters: Type IV (collagen content comparison, serum ECM) / Laminin (serum ECM) / Hyaluronic Acid (serum ECM): unit not given here
# Experimental: Radiation pneumonia and subsequent pulmonary fibrosis in rats was induced by Cobalt-60 radiation. The efficacies were assessed by the lung weight coefficient, HXP content, serum ECM measurement, CT scan and pathological examinations.
# [6] = tested on: rats with pulmonary fibrosis induced by bleomycin; experiment: Pharmacodynamics of asiaticoside in rats with pulmonary fibrosis induced by bleomycin; type: in vivo
# Experimental: The rats with lung fibrosis were induced by bleomycin through trachea administration and then treated with asiaticoside. […] The study regimen lasted for 28 days. The lung weight coefficient and hydroyproline (HXP) content were measured on day 2 and 8 after the formation of animal model. CT scan, pathology and serum ECM content measurements were conducted on day 14, 21 and 28 days respectively.
# [7] = first experiment, asiatic acid high dose 27 mg/kg po 28 days
# [8] = first experiment, asiatic acid low dose 3 mg/kg po 28 days
# [9] = first experiment, asiatic acid medium dose 9 mg/kg po 28 days
# [10] = second experiment, asiatic acid high dose 27 mg/kg po 28 days
# [11] = second experiment, asiatic acid low dose 3 mg/kg po 28 days
# [12] = second experiment, asiatic acid medium dose 9 mg/kg po 28 days
# [13] = third experiment, asiatic acid high dose 27 mg/kg po 28 days
# [14] = third experiment, asiatic acid low dose 3 mg/kg po 28 days
# [15] = third experiment, asiatic acid medium dose 9 mg/kg po 28 days
# [16] = dexamethasone 0.6 mg/kg daily oral, 28 days
# [17] = first experiment, dexmethasone 0.6 mg/kg po 28 days
# [18] = second experiment, dexmethasone 0.6 mg/kg po 28 days
# [19] = third experiment, dexmethasone 0.6 mg/kg po 28 days
smiles,measurement,setting,value
"C[C@H]1[C@H](C)CC[C@]2(C(=O)O)CC[C@]3(C)C(=CC[C@@H]4[C@@]5(C)C[C@@H](O)[C@H](O)[C@@](C)(CO)[C@@H]5CC[C@]43C)[C@H]12 [Asiatic acid, asiatic acid]",Solubility,[1],insoluble in water
same,IC50,"[2]; Mus musculus, Fibroblast, bFGF, read-out: IC50, growth inhibition of fibroblast treated with bFGF",137 µg/mL
same,Inhibitory activity on fibroblast proliferation,[2]; bFGF 0.5 g/ml,growth inhibitory roles to fibroblast treated with bFGF to certain extent
same,Tissue accumulation,[3],no apparent tissue accumulation
same,CT: therapeutic effect in acute phase of pulmonary fibrosis,[4]; acute phase,didn't display any therapeutic effects
same,Lung CT scanning results,[4]; asiatic acid high dose 27 mg/kg po,"Light glass infiltration, part of lobules consolidates."
same,Lung CT scanning results,[4]; asiatic acid low dose 3 mg/kg po,"Consolidation in lobules, bronchiectasis, honeycomb"
same,Pathology results (HE staining of lungs),"[4]; asiatic acid high, medium and low dose, 28 days, not dose dependent","light fibroplasias in alveoli pulmonis diaphragm, light lymphocyte infiltration and compensatory emphysema"
same,Lung weight coefficient,[4]; [7],0.70
same,Lung Weight,[4]; [7],2.17 g
same,Lung weight coefficient,[4]; [8],0.66
same,Lung Weight,[4]; [8],1.97 g
same,Lung weight coefficient,[4]; [9],0.66
same,Lung Weight,[4]; [9],2.02 g
same,HX content (hydroxyproline content in lung) X ± SD,"[4]; first experiment, high dose 27 mg/kg po * 28",2.39 ± 0.44 mg/g
same,HX content (hydroxyproline content in lung) X ± SD,"[4]; first experiment, low dose 3 mg/kg po * 28",3.43 ± 0.62 mg/g
same,HX content (hydroxyproline content in lung) X ± SD,"[4]; first experiment, medium dose 9 mg/kg po * 28",2.36 ± 0.87 mg/g
same,CT: therapeutic effect in mid to late phase of the disease,[4]; mid to late phase,can significantly relive the extent of fibrosis in lungs
same,Overall effect on lung fibrosis,"[4]; rats receiving bleomycin induction, direct administration",can relieve lung fibrosis
same,Lung weight coefficient,[4]; [10],0.65
same,Lung Weight,[4]; [10],2.26 g
same,Lung weight coefficient,[4]; [11],0.76
same,Lung Weight,[4]; [11],2.34 g
same,Lung weight coefficient,[4]; [12],0.70
same,Lung Weight,[4]; [12],2.21 g
same,HX content (hydroxyproline content in lung) X ± SD,"[4]; second experiment, high dose 27 mg/kg po * 28",2.37 ± 0.41 mg/g
same,HX content (hydroxyproline content in lung) X ± SD,"[4]; second experiment, low dose 3 mg/kg po * 28",3.41 ± 0.60 mg/g
same,HX content (hydroxyproline content in lung) X ± SD,"[4]; second experiment, medium dose 9 mg/kg po * 28",2.36 ± 0.79 mg/g
same,Lung weight coefficient,[4]; [13],0.70
same,Lung Weight,[4]; [13],2.17 g
same,Lung weight coefficient,[4]; [14],0.66
same,Lung Weight,[4]; [14],1.97 g
same,Lung weight coefficient,[4]; [15],0.66
same,Lung Weight,[4]; [15],2.02 g
same,HX content (hydroxyproline content in lung) X ± SD,"[4]; third experiment, high dose 27 mg/kg po * 28",2.30 ± 0.46 mg/g
same,HX content (hydroxyproline content in lung) X ± SD,"[4]; third experiment, low dose 3 mg/kg po * 28",3.42 ± 0.57 mg/g
same,HX content (hydroxyproline content in lung) X ± SD,"[4]; third experiment, medium dose 9 mg/kg po * 28",2.71 ± 0.44 mg/g
"C[C@@H]1C[C@H]2[C@@H]3CCC4=CC(=O)C=C[C@]4(C)[C@@]3(F)[C@@H](O)C[C@]2(C)[C@@]1(O)C(=O)CO [Dexmethasone, Dexamethasone, reference compound]",CT scan findings,[5]; dexamethasone group,mild ground glass infiltration and fibrotic streaks in the right lung with right base atelectasis
same,HXP content,[5]; dexamethasone treated,36.42 ± 2.74 mg/g
same,Hyaluronic Acid (serum ECM),[5]; dexamethasone treated,195.12 ± 55.89
same,Laminin (serum ECM),[5]; dexamethasone treated,47.91 ± 8.04
same,Lung weight coefficient,[5]; dexamethasone treated,0.42%
same,"PIIIP (collagen content comparison, serum ECM)",[5]; dexamethasone treated,14.51 ± 5.61
same,"Type IV (collagen content comparison, serum ECM)",[5]; dexamethasone treated,12.65 ± 2.87
same,CT scan findings,[6]; dexamethasone 0.6 mg/kg,ground glass infiltration and fibrotic streaks were found in both lungs
same,ET-1 (cytokine content),[6]; dexamethasone 0.6 mg/kg,257.86 ± 20.81
same,Hyaluronic Acid (serum ECM),[6]; dexamethasone 0.6 mg/kg,232.97 ± 101.24
same,Laminin (serum ECM),[6]; dexamethasone 0.6 mg/kg,48.41 ± 14.12
same,"PIIIP (collagen content comparison, serum ECM)",[6]; dexamethasone 0.6 mg/kg,19.59 ± 6.24
same,Pathology,[6]; dexamethasone 0.6 mg/kg,a light inflammatory reaction caused by lymphocyte was found with inflammatory cell infiltration seen in the alveoli pulmonis
same,TNF-α (cytokine content),[6]; dexamethasone 0.6 mg/kg,6.50 ± 0.73
same,TNF-[…] (cytokine content),[6]; dexamethasone 0.6 mg/kg,0.075 ± 0.010
same,"Type IV (collagen content comparison, serum ECM)",[6]; dexamethasone 0.6 mg/kg,10.71 ± 4.94
same,HXP content,[6]; [16],19.32 ± 4.35 mg/g
same,Lung weight coefficient,[6]; [16],0.72%
same,Lung CT scanning results,[4]; dexmethasone 0.6 mg/kg po,Light hyperplasy in lung striation. Light consolidation
same,HX content (hydroxyproline content in lung) X ± SD,"[4]; first experiment, 0.6 mg/kg po * 28",2.34 ± 9.54 mg/g
same,Lung weight coefficient,[4]; [17],0.72
same,Lung Weight,[4]; [17],1.90 g
same,HX content (hydroxyproline content in lung) X ± SD,"[4]; second experiment, 0.6 mg/kg po * 28",2.41 ± 0.45 mg/g
same,Lung weight coefficient,[4]; [18],0.69
same,Lung Weight,[4]; [18],1.62 g
same,HX content (hydroxyproline content in lung) X ± SD,"[4]; third experiment, 0.6 mg/kg po * 28",2.47 ± 0.45 mg/g
same,Lung weight coefficient,[4]; [19],0.72
same,Lung Weight,[4]; [19],1.90 g
